Read-outs that look alike come from different tables or passages of the source.
Tested on: Lox-IMVI melanoma cell line
Test: Lox-IMVI anti-proliferative assay (growth inhibition, Cell Titer-Glo)
Type: cell-based, human
Conditions: Homo sapiens
In short: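 Viability read by ATP luminescence (Cell Titer-Glo) at t0 and after 72 h at 37 °C, 5% CO2, with normalisation to DMSO-treated cells. Compound tested at 0.5 nM–10 μM in 3-fold, 10-point series (0.2% DMSO final) on Lox-IMVI in RPMI+10% FBS; IC50 by 4-parameter sigmoidal fit.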

[1] = Lox-IMVI anti-proliferative assay, IC50 activity level, read-out: Activity
[2] = Lox-IMVI melanoma cell line, anti-proliferative assay, read-out: Activity (IC50 activity level)

Row | SMILES | IC50 [1] [nM] | IC50 [2] [nM]
1 | NC(=O)[C@H]1CC[C@@H](n2c(Nc3c(Cl)cc(Cl)cc3Cl)nc3cnc(N[C@H]4CCC(F)(F)C4)nc32)CC1 [Example 594, (1R,4s)-4-(2-((S)-3,3-difluorocyclopentylamino)-8-(2,4,6-trichlorophenylamino)-9H-purin-9-yl)cyclohexanecarboxamide] | 250 to 500 | –
2 | NC(=O)[C@H]1CC[C@@H](n2c(Nc3c(Cl)cc(OC(F)(F)F)cc3Cl)nc3cnc(N[C@@H]4CCC[C@H](O)C4)nc32)CC1 [Example 595, (1S,4s)-4-(8-(2,6-dichloro-4-(trifluoromethoxy)phenylamino)-2-((1R,3S)-3-hydroxycyclohexylamino)-9H-purin-9-yl)cyclohexanecarboxamide] | > 1000 | –
3 | NC(=O)[C@H]1CC[C@@H](n2c(Nc3c(Cl)cc(OC(F)(F)F)cc3Cl)nc3cnc(NC4CCC(F)(F)CC4)nc32)CC1 [Example 596, (1s,4s)-4-(8-(2,6-dichloro-4-(trifluoromethoxy)phenylamino)-2-(4,4-difluorocyclohexylamino)-9H-purin-9-yl)cyclohexanecarboxamide] | > 1000 | –
4 | NC(=O)[C@H]1CC[C@@H](n2c(Nc3c(Cl)cc(OC(F)(F)F)cc3Cl)nc3cnc(NC4CCCC4)nc32)CC1 [Example 597, (1s,4s)-4-(2-(cyclopentylamino)-8-(2,6-dichloro-4-(trifluoromethoxy)phenylamino)-9H-purin-9-yl)cyclohexanecarboxamide] | > 1000 | –
5 | C[C@]1(C(N)=O)CC[C@@H](n2c(Nc3c(Cl)cc(OC(F)(F)F)cc3Cl)nc3cnc(NC4CCC4)nc32)CC1 [Example 598, (1s,4s)-4-(2-(cyclobutylamino)-8-(2,6-dichloro-4-(trifluoromethoxy)phenylamino)-9H-purin-9-yl)-1-methylcyclohexanecarboxamide] | > 1000 | –
6 | C[C@]1(C(N)=O)CC[C@@H](n2c(Nc3c(Cl)cc(C#N)cc3Cl)nc3cnc(NC4CCC4)nc32)CC1 [Example 599, (1s,4s)-4-(2-(cyclobutylamino)-8-(2,6-dichloro-4-cyanophenylamino)-9H-purin-9-yl)-1-methylcyclohexanecarboxamide] | – | < 250
7 | C[C@]1(C(N)=O)CC[C@@H](n2c(Nc3c(F)cc(C#N)cc3Cl)nc3cnc(NC4CCC4)nc32)CC1 [Example 600, (1s,4s)-4-(8-(2-chloro-4-cyano-6-fluorophenylamino)-2-(cyclobutylamino)-9H-purin-9-yl)-1-methylcyclohexanecarboxamide] | – | < 250
8 | C[C@]1(C(N)=O)CC[C@@H](n2c(Nc3c(F)cc(C#N)cc3F)nc3cnc(NC4CCC4)nc32)CC1 [Example 601, (1s,4s)-4-(8-(4-cyano-2,6-difluorophenylamino)-2-(cyclobutylamino)-9H-purin-9-yl)-1-methylcyclohexanecarboxamide] | – | < 250

Continued, values first:

Row | IC50 [1] [nM] | IC50 [2] [nM] | SMILES
9 | – | > 1000 | C[C@]1(C(N)=O)CC[C@@H](n2c(Nc3c(Cl)cc(C(F)(F)F)cc3Cl)nc3cnc(NC4CCC4)nc32)CC1 [Example 602, (1s,4s)-4-(2-(cyclobutylamino)-8-(2,6-dichloro-4-(trifluoromethyl)phenylamino)-9H-purin-9-yl)-1-methylcyclohexanecarboxamide]
10 | – | < 250 | C[C@]1(C(N)=O)CC[C@@H](n2c(Nc3c(Cl)cc(Cl)cc3Cl)nc3cnc(NC4CCC4)nc32)CC1 [Example 603, (1s,4s)-4-(2-(cyclobutylamino)-8-(2,4,6-trichlorophenylamino)-9H-purin-9-yl)-1-methylcyclohexanecarboxamide]
11 | – | < 250 | C[C@]1(C(N)=O)CC[C@@H](n2c(Nc3c(F)cc(F)cc3Cl)nc3cnc(NC4CCC4)nc32)CC1 [Example 604, (1s,4s)-4-(8-(2-chloro-4,6-difluorophenylamino)-2-(cyclobutylamino)-9H-purin-9-yl)-1-methylcyclohexanecarboxamide]
12 | – | < 250 | C[C@]1(C(N)=O)CC[C@@H](n2c(Nc3c(F)cc(Cl)cc3Cl)nc3cnc(NC4CCC4)nc32)CC1 [Example 605, (1s,4s)-4-(2-(cyclobutylamino)-8-(2,4-dichloro-6-fluorophenylamino)-9H-purin-9-yl)-1-methylcyclohexanecarboxamide]
